{"source": "the NIST ThermoML archive (doi:10.1021/je201354k)", "key": {"[1]": {"conditions": "Crystal; DTA"}, "[2]": {"experiment": "Molar enthalpy of transition or fusion", "conditions": "Crystal; DSC"}}, "note": "Numbers after ± are expanded uncertainties.", "data": [{"compound": "N[C@@H](Cc1ccccc1)C(=O)O", "note": "[L-phenylalanine]", "values": [{"measurement": "Triple point temperature", "setting": "[1]", "value": "556.15 ± 0.5", "unit": "K"}, {"measurement": "Molar enthalpy of transition or fusion", "setting": "[2]", "value": "4.41 ± 0.136", "unit": "kcal/mol"}]}]}
